The record followed here is US6559140B2 (Abbott Laboratories, priority 2000, dated 2003).

Sequence of H3 receptor (Q9QYN8 1-397 isoform Q9QYN8-3): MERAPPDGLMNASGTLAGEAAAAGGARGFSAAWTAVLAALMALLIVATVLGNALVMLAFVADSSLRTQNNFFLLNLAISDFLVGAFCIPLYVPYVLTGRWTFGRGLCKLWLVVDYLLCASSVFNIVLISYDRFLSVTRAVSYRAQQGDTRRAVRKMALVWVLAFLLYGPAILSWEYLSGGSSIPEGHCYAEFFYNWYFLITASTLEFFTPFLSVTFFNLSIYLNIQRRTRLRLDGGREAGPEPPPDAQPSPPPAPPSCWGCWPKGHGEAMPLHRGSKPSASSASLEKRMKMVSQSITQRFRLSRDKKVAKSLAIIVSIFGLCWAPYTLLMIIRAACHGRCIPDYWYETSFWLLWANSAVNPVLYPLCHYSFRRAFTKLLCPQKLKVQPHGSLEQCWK

The assay has as its target H3 receptor (Rattus norvegicus, UniProt Q9QYN8). Briefly: H3 receptor binding, (3H)-N-α-methylhistamine displacement in rat cortical membranes. The following applies: male Sprague-Dawley rat brain cortical membranes, 30 minutes at 25° C., Cheng-Prusoff, geometric mean values of 2-10 separate experiments.
For orientation: Ki means a dissociation constant, usually derived from enzyme kinetics or from competition with a known ligand. The low end stands for tighter binding, the high end for weaker binding. Molecule `COc1ccc(-c2nc(-c3ccc(OCCCN4CCN(C(=O)[C@@H](C)NC(=O)c5cccs5)CC4)cc3F)no2)cc1` [Example 198, N-{(1R)-2-[4-(3-{3-fluoro-4-[5-(4-methoxyphenyl)-1,2,4-oxadiazol-3-yl]phenoxy}propyl)-1-piperazinyl]-1-methyl-2-oxoethyl}-2-thiophenecarboxamide] showed a Ki of 25.9 nM. That is a double-digit nanomolar value. The molecule `O=C(NCCC(=O)N1CCN(CCCOc2ccc(-c3noc(-c4ccccc4)n3)c(F)c2)CC1)C1CCCC1` [Example 158, N-[3-(4-{3-[3-fluoro-4-(5-phenyl-1,2,4-oxadiazol-3-yl)phenoxy]propyl}-1-piperazinyl)-3-oxopropyl]cyclopentanecarboxamide] had a Ki of 11.7 nM. Compared with the last molecule, the Ki is about 2.2-fold lower.

As to `Cc1cccc(-c2nc(-c3ccc(OCCCN4CCN(C(=O)[C@@H](C)NC(=O)c5cccs5)CC4)cc3F)no2)c1` [Example 187, N-{(1R)-2-[4-(3-{3-fluoro-4-[5-(3-methylphenyl)-1,2,4-oxadiazol-3-yl]phenoxy}propyl)-1-piperazinyl]-1-methyl-2-oxoethyl}-2-thiophenecarboxamide], the Ki is 26.2 nM. This Ki is about 2.2-fold higher than that of the molecule before. Next, `CCCCCC(=O)c1ccc(OCCCN2CCN(C(=O)[C@H](N)CO)CC2)cc1` [Example 52, 1-(4-(3-(4-((2R)-2-amino-3-hydroxypropanoyl)-1-piperazinyl)propoxy)phenyl)-1-hexanone]: 8.39 nM; `C[C@H](N)C(=O)N1CCN(CCCOc2ccc(C(=O)C3CC3)cc2)CC1` [Example 1, (4-(3-(4-((2S)-2-aminopropanoyl)-1-piperazinyl)propoxy)phenyl)(cyclopropyl)methanone]: 19.6 nM; `C[C@@H](N)C(=O)N1CCCN(CCCOc2ccc(-c3noc(CC4CCCC4)n3)c(F)c2)CC1` [Example 169, (2R)-1-[4-(3-{4-[5-(cyclopentylmethyl)-1,2,4-oxadiazol-3-yl]-3-fluorophenoxy}propyl)-1,4-diazepan-1-yl]-1-oxo-2-propanamine]: 5.63 nM. In turn, `N#Cc1ccc(-c2ccc(OCCCN3CCCN(C(=O)[C@@H](Cc4cscn4)NC(=O)c4ccco4)CC3)cc2)cc1` [Example 137, N-((1R)-2-(4-(3-((4′-cyano(1,1′-biphenyl)-4-yl)oxy)propyl)-1,4-diazepan-1-yl)-2-oxo-1-(1,3-thiazol-4-ylmethyl)ethyl)-2-furamide] gave an inhibition constant (Ki) of 0.208 nM. As for `O=C(NCCC(=O)N1CCN(CCCOc2ccc(-c3noc(-c4ccccc4)n3)c(F)c2)CC1)[C@H]1CCCO1` [Example 155, (2R)-N-[3-(4-{3-[3-fluoro-4-(5-phenyl-1,2,4-oxadiazol-3-yl)phenoxy]propyl}-1-piperazinyl)-3-oxopropyl]tetrahydro-2-furancarboxamide], the affinity corresponds to a Ki of 17.1 nM. This Ki lies about 82-fold higher than the previous one.
